Values of other authors, collected in US9212386B2, “Enzymatic cleavage based lateral flow assays” (Rapid Pathogen Screening, Inc., priority 2011, dated 2015).
*: point of attachment. FITC = O=C1OC2(c3ccc(O)cc3Oc3cc(O)ccc32)c2ccc(NC(=S)*)cc21; Ahx = NCCCCCC(=O)O

Assays:
[1] = tested on: Bacterial Enzyme Targets (bacterial supernatants of tested micro-organisms); details: for In vitro Cleavage Activity (using FRET): micro-organisms whose enzymes cleave the peptide
[2] = tested on: Bacterial Enzyme Targets (tested micro-organisms); details: micro-organisms whose enzymes cleave the peptide

Substance	In vitro Cleavage Activity (using FRET) [1]	Ex vivo Cleavage activity (using FRET) [2]	selectivity of peptide cleavage [1]
FITC-Ahx-Gly-Gly-Gly-Gly-Lys-DABCYL ({FITC-Ahx}-GGGGK-{DABCYL})	P. aeruginosa	P. aeruginosa	
FITC-Ahx-Leu-DLeu-Lys-DABCYL [BikKam 1]	B. anthracis		highly selective for B. anthracis
FITC-Ahx-Leu-DVal-Lys-DABCYL [BikKam 6]	B. anthracis (moderate)		
